Experimental data reported in patent US10590094B2, “Aminothiazole derivatives useful as antiviral agents” (Innovative Molecules GmbH, priority 2016, dated 2020).
Converted amounts (≈) assume the structure as drawn. “And” between values parts separate entries of the source, which are not always exact repeats. Identical values can stand only once.

Experiments:
HSV-1 [1] = experiment: activity selectivity assay, HSV-1 infected Vero cells (cytopathogenic effect, fluorescein diacetate readout); assay type: cell-based, Herpes simplex virus; conditions: Human alphaherpesvirus 1
Protocol: (§1) HSV (HSV-1 Walki, HSV-1F, HSV-2 MS, HSV clinical isolates and HSV resistant strains) was cultivated on Vero cells (ATCC CCL-81) under the following conditions: The cells were grown in M199 medium (5% foetal calf serum, 2 mM glutamine, 100 IU/mL penicillin, 100 μg/mL streptomycin) in cell culture bottles at 37° C. and 5% CO2. The cells were splitted twice per week (1:4). For the infection, the medium was removed, the cells were washed with Hank's solution, detached using 0.05% trypsin, 0.02% EDTA and incubacted at a density of 4×10^5 cells/mL under the above-mentioned conditions for 24 h. The medium was removed and the virus solution was added at an m.o.i of <0.05 in a volume of 2 mL per 175 cm^2 surface. The infected cells were incubated at 37° C., 5% CO2 for 1 h and then the medium was made up to a volume of 50 mL per 175 cm^2 bottle. […] The virus was released by freezing (−80° C.) and thawing (37° C.) the infected cultures twice. Cell debris was removed by centrifugation (300 g, 10 min, 4° C.) and the supernatant was frozen in aliquots at −80° C.
(§2) The antiviral action was determined using a patented (DE10235967 and WO2004/015416) and subsequently published activity selectivity assay (G. Kleymann et al. J. Biomol. Screen. 2004; 9:578) in 96- or 384-well mictrotitre plates using various cell lines of neuronal, lymphoid and epithelial origin, such as, for example, Vero (african green monkey kidney cells), MEF (murine embryonal fibroblasts), HELF (human embryonal fibroblasts), NT2 (human neuronal cell line) or Jurkat (human lymphoid T-cell line). The relevant experimental details of the above mentioned patent and publication to evaluate the antiviral activity of the invention (disclosed compounds) are described below.
(§3) The effect of the substances on the spreading of the cytopathogenic effect was determined in comparison to the reference compound acyclovir-sodium (Zovirax™), a clinically approved anti-herpes chemotherapeutic.
(§4) The compounds (50 mM stock solution dissolved in DMSO) are examined on microtitre plates (for example 96-well flat bottom cell culture plates) at a final concentration of 250 to 0.5 μM or, in case of potent antiviral compounds, 250 to 0.5 nM in 2 to 4 replications (4 to 2 substances per plate). Also examined are toxic and cytostatic effects or precipitation of the compounds. After an appropriate dilution of the compounds (1:2) on the microtitre plate in the appropriate medium (100 μL), a suspension of cells (50 μL, 1×10^4 cells per well), such as, for example of Vero cells in M199 (medium 199 with 5% foetal calf serum, 2 mM glutamine and optionally 100 IU/ml penicillin and 100 μg/ml streptomycin) or of MEF or HELF cells in EMEM (Eagle's Minimum Essential Medium with 10% foetal calf serum, 2 mM glutamine and optionally 100 IU/mL penicillin and 100 μg/mL streptomycin), or of NT2- and Jurkat cells in DMEM (([…] glucose plus pyridoxin) with 10% foetal calf serum, 2 mM glutamine, 1 mM sodium pyruvate, non-essential amino acids and optionally 100 IU/mL penicillin and 100 μg/mL streptomycin) is added to each well and the cells in the relevant wells are infected with the appropriate amount of virus (HSV-1 or HSV-2 having an m.o.i (multiplicity of infection) of 0.0025 for Vero, HELF and MEF cells and an m.o.i. of 0.1 for NT2 and Jurkat cells). The plates are then incubated at 37° C. in a cell CO2 incubator (5% CO2) for several days. After this time, the cell lawn of, for example, Vero cells in the substance-free virus controls, starting from 25 infections centres, is completely destroyed or lysed by the cytopathogenic effect (CPE) of the Herpes viruses (100% CPE). The plates are initially evaluated visually using a microscope and then analysed using a fluorescent dye. To this end, the cell supernatant of all wells of the MTP is aspirated and the wells are filled with 250 μL PBS (phosphate buffered saline) wash solution. […]

HSV-2 = experiment: activity selectivity assay, HSV-2 infected Vero cells; assay type: cell-based, Herpes simplex virus; conditions: Human alphaherpesvirus 2
Protocol: as §1, §2, §3, §4

HSV-1 ACV resistant = experiment: activity selectivity assay, ACV resistant HSV-1; assay type: cell-based, Herpes simplex virus; conditions: Human alphaherpesvirus 1, read-out: IC50 (HSV-1 ACV resistant)
Protocol: as §1, §2, §3, §4

[2] = pharmacokinetics in male mice strain C57BL/6J; assay type: in vivo; conditions: mouse
Protocol: Pharmcokinetic parameters were determined for Example 3 in male mice strain C57BL/6J at an intraveneous (i.v.) dose of 5 mg/kg (5% DMSO in heterologous plasma, 2.5 ml/kg) and an oral dose (p.o) of 10 mg/kg (DMSO/0.5% HPMC (5:95), 5 ml/kg). […] Significant concentrations in the brain of treated mice (2-3 μM, 1000 ng compound/g brain) were detected 6 h post administration at an oral dose of 10 mg/kg.

[3] = aqueous solubility (PBS, pH 7.4), shake flask; assay type: physicochemical
Protocol: The aqueous solubility (PBS, pH 7.4) was determined at Eurofins, Cerep, Panlabs according to C. A. Lipinski et al. Adv. Drug Del. Rev. 1997, 46:3. Measurement of the aqueous solubility was performed according to Lipinski, C. A. et al. (1997), Adv. Drug Del. Rev., 46: 3-26. The relevant information from the literature is described below. […] In addition, chromatographic purity (%) was defined as the peak area of the principal peak relative to the total integrated peak area in the HPLC chromatogram of the calibration standard.

Human Carboanhydrase II = Human Carboanhydrase II (Homo sapiens, UniProt P00918); experiment: carbonic anhydrase activity assay (pH indicator method); assay type: biochemical
Protocol: Carbonic anhydrase II activity and its respective inhibition was performed according to R. Iyer et al. J. Biomol. Screen.
A protocol for determination of the carbonic anhydrase enymatic activity at rt using the pH indicator method is described below:
1 μL inhibitor (50 mM stock solution in DMSO) is diluted to a final test concentration ranging from 100 μM down to 1 nM (or 1 μL water in controls) and incubated for 2 min with 0.5 to 2 EU human […] (180 U/mg) in 400 μL water and 200 μL phenol red indicator solution (20 mg/L). An enzymactic unit (EU) is defined as an amount which doubles the non catalyzed rate. […] The time to colour change (pH 7.2) is determined with a microchronometer or stop watch.
The percentage of inhibition is calculated as described below: (time to color change without enzyme time to color change with enzyme and inhibitor)/(time to color change without enzyme time to color change with enzyme).

HSV-1 [4] = experiment: HSV-1 intranasal infection mouse model, survival; assay type: in vivo; conditions: Human alphaherpesvirus 1, inhaled or nasal, 120 h; female BALB/ABom mice, intranasal HSV-1, treatment for 5 days; read-out: ED50 (dose at which 50% of the infected animals survive)
Protocol: Animal experiments were performed according to patent WO2001/047904 or subsequent publications (U. A. K. Betz et al. Antimicrob. Agents Chemother. 2002; 46:1766 or G. Kleymann et al. Nat. Med. 2002; 8:392). The relevant experimental details of the above mentioned patent and publication to evaluate the antiviral activity of the invention (disclosed compounds) in-vivo (animal models) are described below.
6 week-old female mice, BALB/ABom strain were obtained from a commercial breeder.
The animals were anaesthetized with Et2O in a sealed glass vessel. 50 μL of a dilution of the virus stock (infection dose 5×10^4 PFU (Plaque forming units)) were introduced into the nose of the anaesthetized animals using a pipette. In 90 to 100% of the animals, this infection dose causes death by generalized infection with prominent respiratory and central-nervous symptoms on average after 5 to 8 days.
6 hours after infection animals were treated with doses of 0.1-150 mg/kg of body mass, 3 times per day at 7 am, 2 pm and 7 pm (tid) or 2 times per day at 7 am and 7 pm (bid) or once daily at 1 pm (od) for a period of 5 days. […] After the last administration, the animals were monitored further and the time of death was determined.

Row | Compound | IC50 (HSV-1 [1]) | IC50 (HSV-2) | IC50 (HSV-1 ACV resistant) | also measured
1 | Nc1nc2c(ncn2COCCO)c(=O)[nH]1 [Acyclovir, reference compound] | 500 to 3000 nM | 500 to 3000 nM | > 25000 nM | 
2 | Cc1nc(N(C)C(=O)Cc2ccc(-c3cc(F)ccc3F)cc2)sc1S(=N)(N)=O (stereo not shown) [Example 3, 2-(2′,5′-Difluoro-[1,1′-biphenyl]-4-yl)-N-methyl-N-(4-methyl-5-sulfamimidoylthiazol-2-yl)acetamide] | 5 to 50 nM | 5 to 50 nM | 5 to 50 nM | concentration at 6 h ([2]; male, C57BL/6J, brain, mice, 6 h post administration, oral dose of 10 mg/kg): 2 µM to 3 µM and 1000 ng/g; bioavailability ([2]; plasma, oral, male C57BL/6J mice, 10 mg/kg p.o. vs 5 mg/kg i.v.): 94%; Tmax ([2]; plasma, po, male C57BL/6J mice, 10 mg/kg p.o.): 1 h; Cmax ([2]; plasma, po, male C57BL/6J mice, 10 mg/kg p.o., read-out: maximal plasma concentration (cmax)): 13.9 µM; half-life ([2]; plasma, male C57BL/6J mice, oral dose of 10 mg/kg, read-out: terminal half life (converted)): ~3.5 h; solubility at 24 h ([3]; PBS buffer, aqueous buffer, kinetic from dmso stock, pH 7.4, shake flask, 24 h incubation, RT, read-out: Solubility [μM] (PBS, pH 7.4, 200 μM Test concentration)): 16.2 µM (≈ 7.07 µg/mL); solubility in comparison to Example 87 (WO2001/047904) ([3]; pH 7.4): significantly increased solubility (at least one order of magnitude); IC50 (Human Carboanhydrase II): > 5 µM; carboanhydrase inhibition (IC50) (Human Carboanhydrase II; text statement before Table 2): no or reduced carbonic anhydrase inhibition; ED50 (HSV-1 [4]): < 10 mg/kg
3 | Cc1nc(N(C)C(=O)Cc2ccc(-c3ccccn3)cc2)sc1S(=N)(N)=O (stereo not shown) [Example 3-1, N-methyl-N-(4-methyl-5-sulfamimdoylthiazol-2-yl)-2-(4-(pyridin-2-yl)phenyl)acetamide] | 5 to 50 nM | 5 to 50 nM | 5 to 50 nM | 
4 | Cc1nc(N(C)C(=O)Cc2ccc(-c3cc(F)ccc3F)cc2)sc1[S+](C)[O-] (stereo not shown) [Example 4, 2-(2′,5′-Difluoro-[1,1′-biphenyl]-4-yl)-N-methyl-N-(4-methyl-5-(methylsulfinyl)thiazol-2-yl)acetamide] | 100 to 500 nM | 100 to 500 nM | 100 to 500 nM | 
5 | Cc1nc(N(C)C(=O)Cc2ccc(-c3cc(F)ccc3F)cc2)sc1S(C)(=N)=O (stereo not shown) [Example 7, 2-(2′,5′-Difluoro-[1,1′-biphenyl]-4-yl)-N-methyl-N-(4-methyl-5-(S-methylsulfonimidoyl)thiazol-2-yl)acetamide] | 25 to 100 nM | 25 to 100 nM | 25 to 100 nM | 
6 | Cc1nc(N(C)C(=O)Cc2ccc(-c3cc(F)ccc3F)cc2)sc1P(=O)(O)O [Example 9, (2-(2-(2′,5′-Difluoro-[1,1′-biphenyl]-4-yl)-N-methylacetamido)-4-methylthiazol-5-yl)phosphonic acid] | 25000 to 100000 nM | 25000 to 100000 nM | 25000 to 100000 nM | 
7 | Cc1nc(N(C)C(=O)Cc2ccc(-c3cc(F)ccc3F)cc2)sc1S(=O)(=O)NC#N [Example 12, N-(5-(N-Cyanosulfamoyl)-4-methylthiazol-2-yl)-2-(2′,5′-difluoro-[1,1-biphenyl]-4-yl)-N-methylacetamide] | 100 to 1000 nM | 100 to 1000 nM | 100 to 1000 nM | 
8 | Cc1nc(N(C)C(=O)Cc2ccc(-c3cc(F)ccc3F)cc2)sc1/S(C)=N\C#N (stereo not shown) [Example 13, N-[5-(N-Cyano-S-methyl-sulfinimidoyl)-4-methyl-thiazol-2-yl]-2-[4-(2,5-difluorophenyl)phenyl]-N-methyl-acetamide] | 300 to 3000 nM | 300 to 3000 nM | 300 to 3000 nM | 
9 | Cc1nc(N(C)C(=O)Cc2ccc(-c3cc(F)ccc3F)cc2)sc1S(C)(=O)=NC#N (stereo not shown) [Example 14, N-[5-(N-Cyano-S-methyl-sulfonimidoyl)-4-methyl-thiazol-2-yl]-2-[4-(2,5-difluorophenyl)phenyl]-N-methyl-acetamide] | 1000 to 5000 nM | 1000 to 5000 nM | 1000 to 5000 nM | 
10 | CSc1sc(N(C)C(=O)Cc2ccc(-c3cc(F)ccc3F)cc2)nc1C [Example P4b, 2-(2′,5′-Difluoro-[1,1′-biphenyl]-4-yl)-N-methyl-N-(4-methyl-5-(methylthio)thiazol-2-yl)acetamide] | 2000 to 6000 nM | 2000 to 6000 nM | 2000 to 6000 nM | 
